Data: patent US10000521B2 (priority 2013, dated 2018)

Columns and labels:
Assay type in all cases: cell-based
[1] = tested on: Huh7 cells; test: TC50 MTS cell viability assay with Huh7 cells (48 h); conditions: Homo sapiens, Huh-7
Source text: Plating Cells: Huh7 cells (a hepatocellular carcinoma cell-line; these cells can be obtained from the Japanese Collection of Research Bioresources (JCRB), Osaka, Japan) were used to determine the TC50 for representative compounds of the present invention. Briefly, Huh7 cells were passaged when they reached about 70% confluency. The cells were counted using a hemocytometer following dilution of the cells to about 0.5×10^5 cells per mL in DMEM with 10% fetal bovine serum (FBS). The cells were plated in a clear 96-well plate (about 5,000 cells in 100 μL per well). The cells were allowed to attach for about 24 hours at 37° C.
Treating of the cells: The DMEM media without phenol red containing 2% FBS was pre-warmed to 37° C. […] Following dilution, the final DMSO concentration was about 0.5% (v/v). […] The plates were then returned to the incubator and incubated with the cells for 48 h at 37° C.
(§1) The 96-well plate with cells incubated with test compound was removed from the 37° C. incubator. The appropriate amounts of the MTS and PMS reagents were removed from the kit and mixed well. The reagents were maintained in the dark due to their light sensitivity. […] The solutions were mixed completely in the wells prior to each reading.

[2] = tested on: Huh7 cells; test: TC50 assay with inhibition of ENT1, Huh7 cells; conditions: Homo sapiens, Huh-7, 48 h, Huh7 cells (48 h)
Procedure: (§2) Plating Cells: Huh7 cells or PK9 cells were seeded in 96-well plates at a density of 5,000 cells/well or 2,500 cells/well, respectively, and the plates were incubated at 37° C. for 24 h to allow for cell attachment.
(§3) Treatment with equilibrative nucleoside transporter 1 (ENT1) Inhibitor: The media was then removed from the plates and replaced with media containing 2% FBS, 0.5% DMSO, and either 10 μM dipyramidole or 10 μM S-(4-nitrobenzyl)-6-thioinosine (NBTI).
(§4) Treating with Control & Compound 1: After incubation with the ENT1 inhibitor, the cells were treated with each compound at final concentrations ranging from 500 μM to 0 μM in triplicate in media containing 2% FBS, 0.5% DMSO, and either 10 μM dipyridamole or 10 μM NBTI.

[3] = tested on: PK9 cells; test: TC50 assay with inhibition of ENT1, PK9 cells; conditions: Homo sapiens, PK9, 48 h, PK9 cells (48 h)
Procedure: as §2, §3, §4

[4] = TC50 assay in different human cell lines (96 h), HEK293; conditions: HEK293 cells, about 96 h, MTS assay
Procedure: as §1
(§5) Plating Cells: Huh7, HEPG2, HEK293, MCF-7, or BxPC3 cells (which can be obtained from American Type Culture Collection, ATCC) were passaged when they were about 70% confluent. […] The cells following passaging were allowed to attach for about 24 hours at 37° C.
(§6) The plates were then returned to the incubator, and cells incubated for about 96 h at 37° C.
(§7) MTS Assay: Assay was carried out as described above.

[5] = tested on: BxPC3; test: TC50 assay in different human cell lines (96 h), BxPC3; conditions: BXPC-3, about 96 h, MTS assay
Procedure: as §1, §5, §6, §7

Work on `O=C(Nc1ccn(C2O[C@H](CO)[C@@H](O)C2(F)F)c(=O)n1)c1ccc2c(c1)OCO2` (stereo partly drawn) [Compound 1, N-(1-((4R,5R)-3,3-difluoro-4-hydroxy-5-(hydroxymethyl)tetrahydrofuran-2-yl)-2-oxo-1,2-dihydropyrimidin-4-yl)benzo[d][1,3]dioxole-5-carboxamide] yielded a CC50 [1] of 473 ± 74 µM, a CC50 ([2]; 10 μM NBTI) of 440 ± 190 µM and a CC50 ([2]; 10 μM dipyridamole) of 410 ± 110 µM. It also gave a CC50 ([2]; ENT1 inhibitor: None) of 473 ± 74 µM, a CC50 ([3]; 10 μM NBTI) of 2.92 ± 0.41 µM and a CC50 ([3]; 10 μM dipyridamole) of 0.61 ± 0.31 µM. For the same compound, the CC50 ([3]; ENT1 inhibitor: None) was 1.63 ± 0.1 µM, the CC50 at 96 h [4] was 4.09 µM and the CC50 [5] was 0.72 µM.
